Reference: the NIST ThermoML archive (doi:10.1007/s10765-011-1149-x)
Numbers after ± are expanded uncertainties.

Tests used:
[1] = 101 kPa, Liquid, Vibrating tube method
[2] = xn = mol fraction of the nth substance listed; details: 101 kPa, Liquid, Vibrating tube method, x2 = 0

| Structure (SMILES) | mass density ([1]; 276.15 K) [kg/m3] | mass density ([1]; 277.15 K) [kg/m3] | mass density ([1]; 283.15 K) [kg/m3] | mass density ([1]; 288.15 K) [kg/m3] | mass density ([1]; 293.15 K) [kg/m3] | mass density ([1]; 298.15 K) [kg/m3] | mass density ([1]; 303.15 K) [kg/m3] | mass density ([1]; 308.15 K) [kg/m3] | mass density ([1]; 313.15 K) [kg/m3] | mass density ([2]; 276.15 K) [kg/m3] | mass density ([2]; 277.15 K) [kg/m3] | mass density ([2]; 283.15 K) [kg/m3] | mass density ([2]; 293.15 K) [kg/m3] | mass density ([2]; 303.15 K) [kg/m3] | other results |
| --- | --- | --- | --- | --- | --- | --- | --- | --- | --- | --- | --- | --- | --- | --- | --- |
| CO [methanol] | 807.18 ± 0.15 | 806.25 ± 0.15 | 800.64 ± 0.15 | 795.96 ± 0.15 | 791.26 ± 0.15 | 786.55 ± 0.15 | 781.83 ± 0.15 | 777.08 ± 0.15 |  |  |  |  |  |  | mass density ([1]; 313.14 K): 772.31 ± 0.16 kg/m3 |
| Cc1cc(C)nc(C)c1 [2,4,6-trimethylpyridine] | 928.45 ± 0.23 | 927.61 ± 0.23 | 922.54 ± 0.23 | 918.32 ± 0.24 |  | 909.84 ± 0.24 | 905.58 ± 0.24 | 901.31 ± 0.24 | 897.03 ± 0.24 |  |  |  |  |  | mass density ([1]; 293.14 K): 914.08 ± 0.24 kg/m3 |
| OCCO [1,2-ethanediol] + Cc1cc(C)nc(C)c1 |  |  |  |  |  |  |  |  |  | 1125.17 ± 0.17 | 1124.48 ± 0.17 | 1120.32 ± 0.16 | 1113.37 ± 0.16 | 1106.36 ± 0.16 | mass density ([2]; 313.15 K): 1099.3 ± 0.16 kg/m3 |
| CO [methanol] + Cc1cc(C)nc(C)c1 |  |  |  |  |  |  |  |  |  | 807.18 ± 0.15 | 806.25 ± 0.15 | 800.64 ± 0.15 | 791.26 ± 0.15 | 781.83 ± 0.15 | mass density ([2]; 288.15 K): 795.96 ± 0.15 kg/m3; mass density ([2]; 298.15 K): 786.55 ± 0.15 kg/m3; mass density ([2]; 308.15 K): 777.08 ± 0.15 kg/m3; mass density ([2]; 313.14 K): 772.31 ± 0.16 kg/m3 |
| OCCO [1,2-ethanediol] | 1125.17 ± 0.17 | 1124.48 ± 0.17 | 1120.32 ± 0.16 |  | 1113.37 ± 0.16 |  | 1106.36 ± 0.16 |  | 1099.3 ± 0.16 |  |  |  |  |  |  |
